Tests used:
Sa-DHQ1 [1] = target: T1, Sa-DHQ1 (Staphylococcus aureus, UniProt Q6GII7); test: DHQ1 assay, kinetic parameters of the substrate; assay type: biochemical; settings: PPB 50 mM, pH 7.2, 25°C
T1 construct: made in house
Method: (§1) The St-DHQ1 and Sa-DHQ1 enzyme were purified as described previously ([Moore et al., 1993]; [Nichols et al., 2004]). Concentrated solutions of St-DHQ1 (0.85 mg mL^−1, 30.74 µM) and Sa-DHQ1 (4 mg mL^−1, 148.13 µM) were stored in potassium phosphate buffer (PPB) (50 mM) and DTT (1 mM) at pH 6.6 and −80°C. When required for assays, aliquots of the enzyme stocks were diluted in water and buffer and stored on ice. DHQ1 was assayed in the forward direction by monitoring the increase in absorbance at 234 nm in the UV spectrum due to the absorbance for the enone-carboxylate chromophore of 3-dehydroshikimic acid (ε/M^−1 cm^−1 12 000). Standard assay conditions were PPB (50 mM, pH 7.2) at 25°C. Each assay was initiated by addition of the substrate. Solutions of 3-dehydroquinic acid 1) were calibrated by equilibration with DHQ1 and measurement of the change in the UV absorbance at 234 nm due to formation of the enone-carboxylate chromophore of 3-dehydroshikimic acid. […] The program GraFit 7.0.3. (Erithacus Software Ltd.). was used for data fitting.

St-DHQ1 [2] = target: T2, St-DHQ1 (Salmonella typhi, UniProt P24670); test: DHQ1 assay, kinetic parameters of the substrate; assay type: biochemical; settings: PPB 50 mM, pH 7.2, 25°C
T2 construct: made in house
T2 sequence (P24670 1-252): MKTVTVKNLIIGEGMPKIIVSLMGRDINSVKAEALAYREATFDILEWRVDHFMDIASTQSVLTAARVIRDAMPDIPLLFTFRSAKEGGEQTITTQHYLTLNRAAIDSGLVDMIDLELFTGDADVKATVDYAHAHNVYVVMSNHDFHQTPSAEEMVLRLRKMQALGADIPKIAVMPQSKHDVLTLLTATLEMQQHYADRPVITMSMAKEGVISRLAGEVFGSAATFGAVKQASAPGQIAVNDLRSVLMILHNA
Method: as §1

Sa-DHQ1 [3] = target: T1, Sa-DHQ1; test: Time-dependent irreversible inhibition assay (incubation of enzyme with ligand, residual activity at 234 nm); assay type: biochemical
Method: (§2) The inhibitory capacity of compounds 6–8 against DHQ1 enzymes from S. aureus and S. typhi was evaluated. For irreversible inhibition assays, the enzyme was incubated with the ligand and its remaining activity was progressively determined using aliquots from the incubation samples and the control. For reversible competitive inhibition assays, the activity of the enzyme in the presence of increasing amount of ligand was evaluated. The enzyme activity was determined by monitoring the increase in absorbance at 234 nm in the UV spectrum due to formation of the enone-carboxylate chromophore of the enzyme product, 3-dehydroshikimic acid 2).
as §1
(§3) Incubation of Sa-DHQ1 and St-DHQ1 (2.96 µM from a stock protein concentration of […]) with various aqueous solutions of compounds 6–8 (30–4,000 µM) was carried out in PPB (0.5 mL, 50 mM) at pH 7.2 at 25°C. The activity was determined progressively in duplicate over a 3 h period under the standard assay conditions (see above) using aliquots from the incubation samples and the control. Semilogarithmic plots of residual activity as a function of time with a range of inhibitor concentrations [I] were performed to obtain the first-order rate constant, k obs, calculated from the slope, and is related with k inact KI constants by Equation 1 implemented in GraFit ([Plapp, 1982]): kobs=(kinact I) / (KI)+I) (1)

St-DHQ1 [4] = target: T2, St-DHQ1; test: as above; assay type: biochemical
Method: as §2, §1, §3

Sa-DHQ1 [5] = target: T1, Sa-DHQ1; test: Reversible competitive inhibition assay (initial rates, IC50); assay type: biochemical; settings: substrate 14 µM, PPB 50 mM, pH 7.2, 25°C
Method: as §2, §1
(§4) IC50 values were determined in duplicate by measuring the initial rates at fixed enzyme and substrate concentrations (14 µM) in the absence and in the presence of various compounds concentrations, which was adjusted to the Equation 2 implemented in GraFit: y=Emax / 1+(IC50 / x)^n (2)
(§5) were y is the observed effect at inhibitor concentration x, Emax corresponds to the maximum effect, IC50 is the concentration at which a 50% […] is obtained, and n is the slope of the curve.

St-DHQ1 [6] = target: T2, St-DHQ1; test: as above; assay type: biochemical; settings: substrate 14 µM, PPB 50 mM, pH 7.2, 25°C
Method: as §2, §1, §4, §5

St-DHQ1 [7] = target: T2, St-DHQ1; test: MALDI mass spectrometry of enzyme incubated with ligand; assay type: binding; settings: for covalent modification of enzyme (MALDI): similar studies, incubation with ligand
Method: The covalent modification of DHQ1 by compound 6 was also corroborated by mass spectrometry analysis of samples incubated with and without ligand.
St-DHQ1 (3.1 µM from a stock protein concentration of 0.85 mg mL^−1) and Sa-DHQ1 (3.0 µM from a stock protein concentration of 4 mg mL^−1) was incubated with various aqueous solutions of ligands 6–8 in PPB (0.5 mL, 50 mM) at pH 7.2, 25°C. The activity was determined progressively over a 24 h period under the standard assay conditions using aliquots from the incubation samples and the control. The activity was measured at a substrate concentration of 14 µM. The initial rate of each assay was measured. The samples were concentrated and washed (5 mM ammonium carbonate) for MALDI analysis by centrifugation at 4 °C using Amicon® centrifugal filters (Amicon Ultra-10). The samples were freeze-dried, diluted with 5 mM ammonium bicarbonate (5 µL) and analyzed by mass spectrometry using a MALDI TOF/TOF Mass Spectrometer (4,800 Analyzer, AbSciex). The ProteoMass™ MALDI calibration kit (Merck) was employed for calibration and sanipic acid as a matrix. Spectra were analyzed using the Data Explorer™ Software. Experiments were performed in triplicate.
Figure S3. MALDI spectra of St-DHQ1 after incubation with 3-hydroxylaminoquinic acid (6) (left) and the control (right). Incubation conditions were potassium phosphate buffer (50 mM, pH 7.0), 25 °C and (1:120) protein/ligand ratio, 24 h. After incubation and for MALDI analysis, the samples were successively washed with 5 mM […] by centrifugation at 4 °C using Amicon® centrifugal filters and concentrated. Sinapic acid was used as a matrix.
(1 picture or pasted object on this page, not shown here)

[8] = system: Salmonella enterica DHQ1 enzyme; settings: crystal structure PDB ID 4GUI, 1.78 Å; ref Light et al., 2014; cited from earlier work
[9] = PPB 50 mM, pH 7.2, 25°C, time-dependent irreversible inhibition

T1 sequence (Q6GII7 whole entry): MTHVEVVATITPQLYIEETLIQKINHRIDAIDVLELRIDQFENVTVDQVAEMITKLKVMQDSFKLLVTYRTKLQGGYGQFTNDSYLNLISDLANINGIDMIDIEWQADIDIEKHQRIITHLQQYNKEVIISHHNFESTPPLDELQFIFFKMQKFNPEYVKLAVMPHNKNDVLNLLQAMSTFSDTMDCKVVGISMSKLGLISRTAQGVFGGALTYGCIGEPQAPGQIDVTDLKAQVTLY

SMILES	type of inhibition (Sa-DHQ1 [3])	type of inhibition (St-DHQ1 [4])	IC50 (Sa-DHQ1 [5]) [µM]	IC50 (St-DHQ1 [6]) [µM]	covalent modification of enzyme (MALDI) (St-DHQ1 [7])	other results
O=C1C[C@@](O)(C(=O)O)C[C@@H](O)[C@@H]1O [3-dehydroquinic acid]	–	–	–	–	–	K m (Sa-DHQ1 [1]): 18 ± 3 µM; k cat (Sa-DHQ1 [1]): 255 ± 12 s⁻¹; K m (St-DHQ1 [2]): 24 ± 3 µM; k cat (St-DHQ1 [2]): 1.1 ± 0.1 s⁻¹
N[C@@H]1C[C@@](O)(C(=O)O)C[C@@H](O)[C@@H]1O [Compound 7, (1S,3R,4R,5R)-3-amino-1,4,5-trihydroxycyclohexane-1-carboxylic acid]	reversible competitive inhibitors	reversible competitive inhibitors	482 ± 19	528 ± 33	No modifications	–
O=C(O)[C@]1(O)C[C@@H](O)[C@@H](O)[C@H](O)C1 [(–)-quinic acid (9), (–)-quinic acid]	–	–	–	–	–	covalent adduct formation with the enzyme [8]: does not form a covalent adduct
O=C(O)[C@@]1(O)C[C@@H](O)[C@H](O)[C@@H]2O[C@@H]21 [Compound 8, (1S,2R,4R,5S,6S)-2,4,5-trihydroxy-7-oxabicyclo[4.1.0]heptane-2-carboxylic acid]	reversible competitive inhibitors	reversible competitive inhibitors	> 2000	> 2000	No modifications	–
O=C(O)[C@@]1(O)C[C@@H](O)[C@H](O)[C@H](NO)C1 [Compound 6, (1S,3R,4R,5R)-1,3,4-trihydroxy-5-hydroxylaminocyclohexane-1-carboxylic acid]	time-dependent irreversible inhibitor	time-dependent irreversible inhibitor	–	–	–	k inact (Sa-DHQ1 [3]; PPB 50 mM, pH 7.2, 25°C): 8 ± 1 ms^−1; Ki (Sa-DHQ1 [3]; [9]): 90 ± 8 µM; k inact (St-DHQ1 [4]; PPB 50 mM, pH 7.2, 25°C): 13 ± 1 ms^−1; Ki (St-DHQ1 [4]; [9]): 130 ± 12 µM; additional mass of covalently modified enzyme (MALDI) (St-DHQ1 [7]; St-DHQ1, ∼1:120 enzyme/ligand ratio, 24 h, 25°C): 158
